Laboratory results reported in US9212177B2, “Antiviral compounds and methods of making and using thereof” (Versitech Limited, priority 2009, dated 2015).
pEC50: −log10 of the molar value. Like-named read-outs stand apart in the source and are kept apart here.

Columns and labels:
Influenza A H1N1\WSN\33 = assay: microbe, parasite or virus in culture; format: cell-based, Influenza A virus; settings: for pEC50: read-out: EC50 by PRA
MDCK cells = assay: MTT cytotoxicity assay in MDCK cells; format: cell-based, canine; settings: 24 hours incubation, concentrations tested 0 to 250 μM, read-out: TC50 in MDCK cells
Description: (§1) Cytotoxicity of Compounds 1-10 was measured by the 3-(4,5-dimethylthiazol-2-yl)-2,5-diphenyltetrazolium bromide (MTT, Sigma-Aldrich, USA) assay. The assay was performed by seeding Vero cells or MDCK cells at 20,000 cells/well in a total volume of 100 μl EMEM with 10% FBS in flat bottomed 96-well microtitre plates. After 24 hours of incubation, cells were washed twice with PBS and then replenished with fresh EMEM before the addition of the compounds. After the addition of the compounds, the cells were further incubated at 37° C. with 5% CO2 for 24 hours. MTT was added to each well to a final concentration of 0.5 mg/ml. The plates were further incubated at 37° C. with 5% CO2 for 4 hours. At the end of the incubation period, 100 μl of 10% of lauryl sulfate (SDS) in 0.01M of hydrochloric acid (HCl) was added to each well to solubilize the cells. After overnight incubation, the plates were read at 570 nm with 640 nm as the reference wavelength. The median toxic concentration, TC50, which represents the concentration of a compound required to reduce the MTT reading by 50%, was estimated from the MTT data.

Vero cells = assay: MTT cytotoxicity assay in Vero cells; format: cell-based; settings: 24 hours incubation, concentrations tested 0 to 250 μM, read-out: TC50 in Vero cells
Description: as §1

[1] = MTT cytotoxicity assay in MDCK cells; format: cell-based, canine; settings: dog, MDCK cells, 24 hours incubation, concentrations tested 0 to 250 μM, read-out: TC50 in MDCK cells
Description: as §1

[2] = MTT cytotoxicity assay in Vero cells; format: cell-based; settings: African green monkey, Vero cells, 24 hours incubation, concentrations tested 0 to 250 μM, read-out: TC50 in Vero cells
Description: as §1

| SMILES | pEC50 (Influenza A H1N1\WSN\33) | CC50 (MDCK cells) [µM] | CC50 (Vero cells) [µM] | Selective Index (SI) (Influenza A H1N1\WSN\33) | pEC50 (Influenza A H1N1\WSN\33; Influenza A virus, MDCK, 72 h) | CC50 at 24 h [1] [µM] | CC50 at 24 h [2] [µM] |
| --- | --- | --- | --- | --- | --- | --- | --- |
| Cc1onc(-c2ccc(O)cc2)c1C(=O)N1CCN(c2ccc([N+](=O)[O-])cc2Cl)CC1 [Compound 1, [4-(2-chloro-4-nitro-pheny1)-piperazin-1-yl]-[3-(4-hydroxy-pheny1)-5-methylisoxazol-4-yl]-methanone] | 7.30 | > 250 | > 250 |  |  |  |  |
| Cc1onc(-c2ccccc2)c1C(=O)N1CCN(c2ccc([N+](=O)[O-])cc2Cl)CC1 [Compound 2, [4-(2-chloro-4-nitro-phenyl)-piperazin-1-yl]-[3-phenyl-5-methyl-isoxazol-4-yl]-methanone] |  |  |  | >4167 | 7.22 | > 250 | > 250 |
| Cc1onc(-c2ccc(N)cc2)c1C(=O)N1CCN(c2ccc([N+](=O)[O-])cc2Cl)CC1 [Compound 3, [4-(2-chloro-4-nitro-phenyl)-piperazin-1-yl]-[3-(4-amino-phenyl)-methylisoxazol-4-yl]-methanone] |  |  |  | >4464 |  | > 250 | > 250 |
| Cc1onc(-c2ccc(N=[N+]=[N-])cc2)c1C(=O)N1CCN(c2ccc([N+](=O)[O-])cc2Cl)CC1 [Compound 4, [4-(2-chloro-4-nitro-pheny1)-piperazin-1-yl]-[3-(4-azido-pheny1)-5-methylisoxazol-4-yl]-methanone] | 6.60 | > 250 | > 250 |  |  |  |  |
| Cc1onc(-c2ccccc2Cl)c1C(=O)N1CCN(c2ccc([N+](=O)[O-])cc2Cl)CC1 [Compound 5, [4-(2-chloro-4-nitro-pheny1)-piperazin-1-yl]-[3-(2-chloro-phenyl)-5-methylisoxazol-4-yl]-methanone] | 7.40 | > 250 | > 250 |  |  |  |  |
| Cc1onc(-c2ccccc2Cl)c1C(=O)N1CCN(c2ccc([N+](=O)[O-])cc2Cl)CC1C (centres unmarked) [Compound 6, [4-(2-chloro-4-nitro-phenyl)-2-methyl-piperazin-1-yl]-[3-(2-chloro-phenyl)-5-methyl-isoxazol-4-yl]-methanone] |  |  |  | >1190 | 6.68 | > 250 | > 250 |
| Cc1onc(-c2ccccc2)c1C(=O)N1CCN(c2ccc([N+](=O)[O-])cc2Cl)CC1C (centres unmarked) [Compound 7, [4-(2-chloro-4-nitro-phenyl)-2-methyl-piperazin-1-yl]-[3-phenyl-5-methylisoxazol-4-yl]-methanone] |  |  |  | >313 | 6.10 | > 250 | > 250 |
| Cc1onc(-c2ccccc2Cl)c1C(=O)N1CCN(c2ccc([N+](=O)[O-])cc2)CC1 [Compound 8, [4-(4-nitro-pheny1)-piperazin-1-yl]-[3-(2-chloro-phenyl)-5-methyl-isoxazol-4-yl]-methanone] | 5.29 | > 250 | > 250 |  |  |  |  |
| Cc1onc(-c2c(Cl)cccc2Cl)c1C(=O)N1CCN(c2ccc([N+](=O)[O-])cc2)CC1 [Compound 9, [4-(4-nitro-phenyl)-piperazin-1-yl]-[3-(2,6-dichloro-phenyl)-5-methyl-isoxazol-4-yl]-methanone] |  |  |  | >21 | 4.92 | > 250 | > 250 |
| Cc1onc(-c2ccccc2Cl)c1C(=O)N1CCN(c2c(Cl)cccc2[N+](=O)[O-])CC1 [Compound 10, [4-(2-nitro-6-chloro-phenyl)-piperazin-1-yl]-[3-(2-chloro-phenyl)-5-methyl-isoxazol-4-yl]-methanone] |  |  |  | >10 | 4.60 | > 250 | > 250 |
